# PubChem BioAssay (NCI)
#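 Dose response: 5 concentrations. Exposure: 48 h. Format: 96-well plates. Endpoint: linear interpolation; highest concentration if not reached. GI50 marks 50% less growth. TGI: total growth inhibition.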
# Assays:
# Assay in all cases: NCI anticancer screen, dose series, 48 h
# M14 melanoma = test system: M14 melanoma
# U251 CNS = test system: U251 CNS
# A549 NSCLC = test system: A549 NSCLC
# NCI-H460 lung = test system: NCI-H460 lung
# SF-539 CNS = test system: SF-539 CNS
# EKVX NSCLC = test system: EKVX NSCLC
# UACC-62 melanoma = test system: UACC-62 melanoma
# OVCAR-3 ovarian = test system: OVCAR-3 ovarian
# RXF 393 renal = test system: RXF 393 renal
# NCI-H226 lung = test system: NCI-H226 lung
SMILES,TGI (M14 melanoma) [µM],TGI (U251 CNS) [µM],TGI (A549 NSCLC) [µM],TGI (NCI-H460 lung) [µM],TGI (SF-539 CNS) [µM],TGI (EKVX NSCLC) [µM],TGI (UACC-62 melanoma) [µM],TGI (OVCAR-3 ovarian) [µM],TGI (RXF 393 renal) [µM],TGI (NCI-H226 lung) [µM],GI50 (M14 melanoma) [µM],GI50 (U251 CNS) [µM],GI50 (A549 NSCLC) [µM],GI50 (NCI-H460 lung) [µM],GI50 (SF-539 CNS) [µM],GI50 (EKVX NSCLC) [µM],GI50 (UACC-62 melanoma) [µM],GI50 (OVCAR-3 ovarian) [µM],GI50 (RXF 393 renal) [µM],GI50 (NCI-H226 lung) [µM]
CN(C)CCNC(=O)c1cccc2[nH]c(-c3ccccc3)nc12,31.1,65.1,31.7,39.8,26.2,53.5,32.6,50.3,33.2,39.5,,,,,,,,,,
Cc1ccc(C)c(NC(=O)CC/C(=N\NC(=O)C(N)=O)C(C)C(=O)c2ccc(O)cc2)c1 (stereo not given),> 100,> 100,> 100,> 100,> 100,> 100,> 100,> 100,> 100,> 100,,,,,,,,,,
NS(=O)(=O)c1ccc(CCN=C=S)cc1,4.51,4.13,4.85,13.1,3.85,6.23,3.59,3.13,3.18,8.52,2.09,1.94,2.03,3.53,1.87,2.35,1.81,1.7,1.62,2.84
COc1ccc(-c2ccc(C3CC(c4ccc(Cl)cc4)=NN3)o2)c([N+](=O)[O-])c1 (stereo not given),> 100,> 100,> 100,> 100,> 100,> 100,> 100,> 100,> 100,> 100,> 100,> 100,> 100,> 100,> 100,> 100,78.4,> 100,> 100,> 100
CCCCCCCC[N+](C)(CCCCCCCC)CCCCCCCC,1.63,1.31,3.08,1.45,1.66,0.788,1.32,0.792,1.49,1.49,0.388,0.324,1.36,0.43,0.513,0.19,0.302,0.267,0.39,0.406
COc1ccc2c(c1)CCC1C2CC[C@]2(C)/C(=N/OC(=O)Cc3ccccc3)CCC12 (stereo not given in full),32.9,37.4,42.7,30.4,42.8,44.1,30.9,31,47.9,36.5,16.8,19.6,19.3,14.6,21.4,19.4,15.3,15.8,23.3,18.8
Cc1ccccc1C(C#N)C(=O)C(=O)Nc1cccc(Cl)c1 (stereo not given),> 100,> 100,> 100,> 100,> 100,> 100,> 100,> 100,> 100,> 100,,,,,,,,,,
CCN(CC)C(=O)COc1ccc(Br)cc1Br,> 100,> 100,> 100,> 100,> 100,58,> 100,> 100,> 100,> 100,,,,,,,,,,
NCc1nnn(Cc2ccccc2)c1N,> 100,> 100,> 100,> 100,> 100,> 100,> 100,> 100,> 100,> 100,,,,,,,,,,
CN(C)CCCc1c[nH]c2ccccc12,> 100,> 100,> 100,> 100,> 100,> 100,> 100,> 100,> 100,> 100,,,,,,,,,,
